Measured values: patent US7422867B2, “Methods of identifying compounds that modulate IL-4 receptor mediated IgE synthesis utilizing a CLLD8 protein” (Rigel Pharmaceuticals, Inc., priority 2002, dated 2008)

How the values were obtained:
[1] = tested on: IL-4 induced germline ε transcription (ε promoter reporter in A5T4 cells); test: Re-infection (DNA transfer) assay in naïve A5T4 reporter cells; functional profile of mutants; type: cell-based, human; settings: for Reporter Ratio: screening in the A5T4 reporter line, wild type and mutants
Experimental: The ability of peptide CL02A3 wt to inhibit germline ε transcription was confirmed in naïve cells. Briefly, Phoenix cells were transfected with a retroviral vector encoding a BFP-CL02A3 wt peptide fusion as described in WO 99/58663 and WO 97/27213. Naïve A5T4 cells were infected with the resultant virions and grown for 3 days. The infected cells were stimulated with IL-4 (60 U/mL) and, after 3 days, the cells were assessed by FACS for BFP and GFP.
A collection of CL02A3 mutants was generated by replacing single or double amino acid residues in the sequence of CL02A3 wt with a different amino acid, typically an alanine or glycine, as described in copending application Ser. No. 10/095,659, entitled Methods of Identifying Protein Targets, filed Mar. 8, 2002. The functional profiles for the mutants derived from CL02A3 wt was obtained by constructing and screening for activity in the A5T4 reporter cell line in the manner described above. The activity of each mutant at the germline ε promoter is reflected in the reporter ratio, as described above. The reporter ratios were the functional values that were used to develop the functional profiles.
TABLE 2 depicts the amino acid sequences (the dual alanine mutations are underlined) of the mutants tested and the measured reporter ratios when screening in the A5T4 reporter line.
Comparison of the interaction and functional profiles was performed by categorizing the mutants of CL02A3 based on the functional and interaction assays. Based on the reporter ratio, described in panel C of FIG. 4, each mutant was categorized into one of four functional categories: (1) reduction of function (ROF); (2) loss of function (LOF); (3) increase of function (IOF) or (4) functionally neutral (N), as compared to the activity of the wild type peptide, here CL02A3 wt. As mentioned previously, cells expressing a peptide that inhibits germline ε transcription have reporter ratios of ≧1.1. Cells expressing a loss of function mutant have a reporter ratio of […]. […] Functionally neutral mutants have reporter ratios that fall within ±50% of that of the CL02A3 wt peptide. The % increase or decrease in reporter ratio is calculated after subtracting 1.0 from the individual ratios. Using these criteria, peptides CL02A3LG (SEQ ID NO:2), CL02A3TP (SEQ ID NO:4), and CL02A3EQ (SEQ ID NO:5) were designated as IOF mutants, peptide CL02A3LGW (SEQ ID NO:3), CL02A3HH (SEQ ID NO:8), CL02A3PW (SEQ ID NO:9) were designated as ROF mutants, peptides CL02A3HG (SEQ ID NO:6), and CL02A3GC (SEQ ID NO:7) were designated as neutral, and peptide CL02A3AM (SEQ ID NO:10) was designated as a LOF mutant.

[2] = tested on: endogenous germline α promoter; test: TAQMAN assay of endogenous germline α promoter transcription in ST486 cells; type: cell-based; settings: ST486 cells stimulated with TGF-β 40 ng/ml; average of 3 values
Experimental: The assay was similar to that described in the immediately preceding section, except that ST486 cells (ATCC # CRL-1647) engineered to express the tetracycline-regulated transactivator were infected and the infected cells were stimulated with TGF-β (40 ng/ml; Peprotech). The primers and probe, which are specific for the transcription product driven by the ST486 endogenous α promoter, were as follows (the probe was labeled at the 5′-end with Fam and at the 3′-end with Tamra): […]

[3] = target: T1, human CLLD8 protein (hCLLD8) (Homo sapiens, UniProt Q96T68, E117G/V473M); test: β-galactosidase yeast two hybrid (YTH) interaction assay; type: binding
T1 construct: expressed in transfected cells; prey cDNA came from a library of the A5T4 (BJAB-derived human B-cell) reporter line
T1 sequence (Q96T68 1-719 E117G/V473M): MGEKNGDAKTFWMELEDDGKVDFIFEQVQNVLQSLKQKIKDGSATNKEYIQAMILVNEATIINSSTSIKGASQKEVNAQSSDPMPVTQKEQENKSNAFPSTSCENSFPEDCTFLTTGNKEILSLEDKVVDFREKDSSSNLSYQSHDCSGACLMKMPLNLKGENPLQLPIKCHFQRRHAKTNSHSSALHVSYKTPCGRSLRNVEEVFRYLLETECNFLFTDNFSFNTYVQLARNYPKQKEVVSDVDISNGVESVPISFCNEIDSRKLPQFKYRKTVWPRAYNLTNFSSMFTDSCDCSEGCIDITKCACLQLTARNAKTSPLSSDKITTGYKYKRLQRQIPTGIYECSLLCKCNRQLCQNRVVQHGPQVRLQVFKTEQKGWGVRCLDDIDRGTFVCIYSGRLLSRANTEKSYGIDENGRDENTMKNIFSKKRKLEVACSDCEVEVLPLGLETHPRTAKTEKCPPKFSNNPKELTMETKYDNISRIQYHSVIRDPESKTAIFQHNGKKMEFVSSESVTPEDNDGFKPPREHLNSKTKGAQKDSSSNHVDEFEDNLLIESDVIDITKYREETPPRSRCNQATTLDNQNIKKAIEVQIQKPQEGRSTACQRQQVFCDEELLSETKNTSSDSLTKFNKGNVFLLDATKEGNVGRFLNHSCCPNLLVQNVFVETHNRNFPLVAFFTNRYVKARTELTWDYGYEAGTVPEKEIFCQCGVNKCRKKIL
Experimental: Potential binding partners for peptide CL02A3 wt were identified in a β-galactosidase yeast two-hybrid (YTH) assay using peptide CL02A3 wt as bait and a cDNA library constructed from the A5T4 reporter cell line as prey. Binding was assessed by β-galactosidase quantification using BetaFluor (Novagen) as a substrate. A negative interaction control (no cDNA fused downstream of the GAL4 activation domain sequence) was also run. A general outline of the YTH assay is illustrated in FIG. 5A. Following clustering, filtering to remove non-specific bait hits (e.g., GFP and BFP), singletons and clusters recognized by 10 or more cDNA baits (based upon historical YTH assays), and prioritization, 64 prey clones were identified as hits.
Potential targets identified in the YTH assay were reconfirmed as generally outlined in FIG. 6. The cDNA clones identified as hits in the YTH assay were purified and rescreened for interaction with the CL02A3 wt peptide in a YTH assay. The hit clones were also screened in a control assay for interaction with the BFP using a vector (pGBKT7) that contained only the BFP and not the CL02A3 peptide. At this stage, 51 putative target clones remained.
The interaction of CL02A3 wt peptide and its mutants with the clones identified as potential targets for the peptide CL02A3 wt was then quantified in a β-galactosidase YTH assay. The YTH assay was performed in the manner described above. A general outline of this YTH assay is illustrated in FIG. 5B. For each clone tested, an interaction profile was developed by comparing the β-galactosidase activity of each mutant to that of the wild type peptide, as described above.
The interaction of these IOF, ROF and LOF mutants with different polypeptides encoded by the putative target clones were quantified using the YTH assay described above. […]

Row | Sequence | Reporter Ratio [1] | binding to human CLLD8 protein in yeast two hybrid interaction assay [3] | other results
1 | AMAAHHGWPWGMEQGCTPLG (peptide encoded by synthetic oligomer) [CL02A3HG] | 1.5 |  | 
2 | AMHGHHGWPWGMEQAATPLG (peptide encoded by synthetic oligomer) [CL02A3GC] | 1.89 |  | 
3 | AMHGHHGWPWGMEQGCAALG (peptide encoded by synthetic oligomer) [CL02A3TP] | 1.91 |  | 
4 | AMHGHHGWPWGMEQGCTPLG (peptide encoded by synthetic oligomer) [CL02A3wt] |  | found to bind | endogenous α inhibition ratio [2]: 0.89
5 | AMHGHHGWAAGMEQGCTPLG (peptide encoded by synthetic oligomer) [CL02A3PW] | 1.24 |  | 
6 | AMHGHHGWPWGMEQGCTPAA (peptide encoded by synthetic oligomer) [CL02A3LG] |  | found to bind | 
7 | AMHGHHGWPWGMAAGCTPLG (peptide encoded by synthetic oligomer) [CL02A3EQ] | 2.23, |  | 
8 | AMHGHHAAPWGMEQGCTPLG (peptide encoded by synthetic oligomer) [CL02A3GW] |  | found to bind | 
9 | AMHGAAGWPWGMEQGCTPLG (peptide encoded by synthetic oligomer) [CL02A3HH] | 1.29 |  | 
10 | RAHGHHGWPWGMEQGCTPLG (peptide encoded by synthetic oligomer) [CL02A3AM] |  |  | functional category compared to CL02A3 wt, based on reporter ratio ([1]; % change calculated after subtracting 1.0 from the ratios): LOF (Cells expressing a loss of function mutant have a reporter ratio of <1.11)
